Marks after values point to notes of the source that are not given here.
System: radiolabeled mAb-conjugates
Experiment: In vitro Label release from radiolabeled mAb-TCO-chelate conjugates incubated with Cleaving Agents (SEC)
Conditions: 37°C, 15-24 h; for release (%) without Cleaving Agent: no Cleaving Agent
Description: Briefly, mAb solutions in PBS (4 mg/mL final concentration) were added with 15-20 eq of the NHS-derivative (dissolved at 10 mg/mL in DMSO) and the pH was adjusted to 9 with 1M sodium carbonate. The reaction mixtures were incubated at rt in the dark for 2 h then the products were purified by dialysis (20 kDa MW cut-off membranes) in chelex-treated 0.25M NH4OAc pH 5.5.
After 15-24 h incubation the mixtures were analyzed by SEC and the amount of released Label was quantified from the radioactivity elution profile.

[1] = Label release from TCO derivative 1.8 on trastuzumab, ^111In, PBS
[2] = TCO derivative conjugated to trastuzumab, ^111In, 50% mouse plasma in PBS
[3] = TCO derivative conjugated to trastuzumab, ^111In, PBS
[4] = Label release from TCO derivative 1.14 on CC49, ^89Zr, PBS
[5] = Label release from TCO derivative 1.15 on CC49, ^89Zr, PBS
[6] = Label release from TCO derivative 1.17 on CC49, ^89Zr, PBS
[7] = Label release from TCO derivative 1.17 on trastuzumab, ^89Zr, PBS
[8] = Label release from TCO derivative 1.4 on trastuzumab, ^111In, 50% mouse plasma in PBS
[9] = Label release from TCO derivative 1.8 on trastuzumab, ^111In, 50% mouse plasma in PBS

Structure (SMILES): Cc1nnc(-c2nccc(CNC(=O)CCCC(=O)NC(CO)CO)n2)nn1 [Compound 2.20]
- release (%) [1]: 67.2%

Structure (SMILES): CN(CC(=O)NCCOCCOCCOCCOCCNC(=O)CCC(C(=O)O)N1CCN(CC(=O)O)CCN(CC(=O)O)CCN(CC(=O)O)CC1)C(=O)O[C@@H]1/C=C/CC[C@](C)(C(=O)NCCOCCOCCOCCOCCOCCOCCOCCOCCOCCNC(=O)CCN2C(=O)C=CC2=O)CC1 (stereo partly shown) [Compound 1.8, Mal-PEG9-TCO-Sar-PEG4-DOTAGA]
- release (%) without Cleaving Agent [2]: 6.6%
- release (%) without Cleaving Agent [3]: 5.8%

Structure (SMILES): C[C@]1(C(=O)ON2C(=O)CCC2=O)CC/C=C/[C@@H](OC(=O)NCCNC(=O)CCC(C(=O)O)N2CCN(CC(=O)O)CCN(CC(=O)O)CCN(CC(=O)O)CC2)CC1 (stereo partly shown) [Compound 1.4, NHS-TCO-C2-DOTAGA]
- release (%) without Cleaving Agent [2]: 7.1%
- release (%) without Cleaving Agent [3]: 6.8%

Structure (SMILES): c1ccc(-c2nnc(-c3ccccn3)nn2)nc1 [Compound 2.14, reference compound]
- release (%) [1]: 51.5%

Structure (SMILES): Oc1cccnc1-c1nnc(-c2ncccc2O)nn1 [Compound 2.1, 2,2′-(1,2,4,5-Tetrazine-3,6-diyl)bis(pyridin-3-ol)]
- release (%) [4]: 53.0%
- release (%) [5]: 62.3%
- release (%) (Label release from TCO derivative 1.17 on CC49, ^89Zr, 50% mouse plasma in PBS): 81.3%
- release (%) [6]: 88.0%
- release (%) [7]: 88.9%
- release (%) (Label release from TCO derivative 1.2 on CC49, ^111In, PBS): 80.3%
- release (%) (Label release from TCO derivative 1.2 on cetuximab, ^111In, PBS): 85.7%
- release (%) (Label release from TCO derivative 1.2 on girentuximab, ^111In, PBS): 83.2%
- release (%) (Label release from TCO derivative 1.2 on rituximab, ^111In, PBS): 77.9%
- release (%) (Label release from TCO derivative 1.2 on trastuzumab, ^111In, 50% mouse plasma in PBS): 88.1%
- release (%) (Label release from TCO derivative 1.2 on trastuzumab, ^111In, PBS): 78.2%
- release (%) [8]: 81.8^a %
- release (%) (Label release from TCO derivative 1.6 on trastuzumab, ^111In, 50% mouse plasma in PBS): 68.9%
- release (%) (Label release from TCO derivative 1.6 on trastuzumab, ^111In, PBS): 83.6%
- release (%) (Label release from TCO derivative 1.7 on trastuzumab, ^111In, 50% mouse plasma in PBS): 63.4%
- release (%) (Label release from TCO derivative 1.7 on trastuzumab, ^111In, PBS): 78.9%
- release (%) [9]: 77.0%
- release (%) [1]: 86.4%

Structure (SMILES): CC(=O)N(O)CCCCCNC(=O)CCC(=O)N(O)CCCCCNC(=O)CCC(=O)N(O)CCCCCNC(=O)CN(C)C(=O)O[C@@H]1/C=C/CC[C@](C)(C(=O)ON2C(=O)CCC2=O)CC1 [Compound 1.15, NHS-TCO-Sar-DFO]
- release (%) without Cleaving Agent (TCO derivative conjugated to CC49, ^89Zr, PBS): 7.3%

Structure (SMILES): O=C(O)CCCC(=O)Nc1cnccc1-c1nnc(-c2ccncc2NC(=O)CCCC(=O)O)nn1 [Compound 2.9, 5,5′-((4,4′-(1,2,4,5-Tetrazine-3,6-diyl)bis(pyridine-4,3-diyl))bis(azanediyl))bis(5-oxopentanoic acid)]
- release (%) [9]: 67.0^a %

Structure (SMILES): CC(=O)Nc1cccnc1-c1nnc(-c2ncccc2NC(C)=O)nn1 [Compound 2.4, N,N′-(2,2′-(1,2,4,5-Tetrazine-3,6-diyl)bis(pyridine-3,2-diyl))diacetamide]
- release (%) [9]: 54.5^a %

Structure (SMILES): Oc1cnccc1-c1nnc(-c2ccncc2O)nn1 [Compound 2.2, 4,4′-(1,2,4,5-Tetrazine-3,6-diyl)bis(pyridin-3-ol)]
- release (%) [4]: 60.3%
- release (%) [5]: 65.8%
- release (%) [6]: 87.2%
- release (%) [7]: 61.4%
- release (%) (Label release from TCO derivative 1.4 on trastuzumab, ^111In, PBS): 69.5%
- release (%) [1]: 81.6%

Structure (SMILES): CC(=O)N[C@H]1C(OCCOCCOCCn2cc(COCCC(=O)NCCCCC(NC(=O)CCOCc3cn(CCOCCOCCOC4O[C@H](CO)[C@H](O)[C@H](O)[C@H]4NC(C)=O)nn3)C(=O)NCc3ccc(-c4nncnn4)cc3)nn2)O[C@H](CO)[C@H](O)[C@@H]1O (stereo partly shown) [Compound 2.11, Tetrazine-bis-GalNAc]
- release (%) [1]: 67.2%

Structure (SMILES): O=C(CCCC(=O)Nc1cccnc1-c1nnc(-c2ncccc2NC(=O)CCCC(=O)NCCOCCOCCOCCOCCOCCOCCOCCOCCOCCO)nn1)NCCOCCOCCOCCOCCOCCOCCOCCOCCOCCO [Compound 2.8, N^1,N^1′-(2,2′-(1,2,4,5-Tetrazine-3,6-diyl)bis(pyridine-3,2-diyl))bis(N^5-(29-hydroxy-3,6,9,12,15,18,21,24,27-nonaoxanonacosyl)glutaramide)]
- release (%) [9]: 60.6%
- release (%) [1]: 79.9%

Structure (SMILES): Cc1nnc(-c2ncccn2)nn1 [Compound 2.19, reference compound]
- release (%) [1]: 69.1%

Structure (SMILES): NCc1ccc(-c2nncnn2)cc1 [Compound 2.16, reference compound]
- release (%) [1]: 64.5%

Structure (SMILES): Cc1nnc(C)nn1 [Compound 2.13, reference compound]
- release (%) [4]: 53.6%
- release (%) [5]: 66.3%
- release (%) [6]: 72.3%
- release (%) [7]: 84.4%
- release (%) [8]: 62.9^a %
- release (%) (Label release from TCO derivative 1.4 on trastuzumab, ^177Lu, PBS): 69.5%
- release (%) [1]: 71.4%
- release (%) (Label release from TCO derivative 1.8 on trastuzumab, ^177Lu, PBS): 88.9%

Reference: patent US20220331458A1, “AGENTS FOR CLEAVING LABELS FROM BIOMOLECULES IN VIVO” (TAGWORKS PHARMACEUTICALS B.V., priority 2019, published 2022)
